Assays:
PBMCs [1] = assay: IFN gamma release in CD3/CD28 stimulated PBMC cells (assay c); assay type: cell-based; details: Homo sapiens, read-out: IC50 Values for Inhibition of Cytokine Release, PBMCs IFNγ
Description: (§1) PBMCs from healthy subjects are separated from whole blood using a density gradient (Lymphoprep, Axis-Shield Healthcare). Cells are added to a 96 well plate pre-coated with a mixture of CD3/CD28 monoclonal antibodies (0.3 μg/mL eBioscience and 3 μg/mL BD Pharmingen respectively). Compound at the desired concentration is then added to the wells and the plate left for 3 days under normal tissue culture conditions. Supernatants are harvested and IL-2 and IFN gamma release determined by Sandwich ELISA (Duo-set, R&D System). The IC50 is determined from the dose response curve.

PBMCs [2] = assay: LPS-induced IL-8 release in PBMC cells (assay b); assay type: cell-based, human; details: Homo sapiens, PBMC; LPS-stimulated PBMCs; read-out: IC50 Values for Inhibition of Cytokine Release, PBMCs IL-8
Summary of the method: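 Cytokines (TNFα, IL-8) in supernatants were quantified by sandwich ELISA after a 24 h challenge with 1 ng/mL E. coli LPS at 37° C, 5% CO2. Healthy-donor PBMCs had been exposed to compound for 2 h beforehand. IC50 values were fitted from the concentration-response curves.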

PBMCs [3] = assay: IL-2 release in CD3/CD28 stimulated PBMC cells (assay c); assay type: cell-based; details: Homo sapiens, read-out: IC50 Values for Inhibition of Cytokine Release, PBMCs IL-2
Description: as §1

d-U937 cells = assay: Accumulation of β catenin in d-U937 cells (assay m); assay type: cell-based, human; details: percentage relative to Reference Compound at 1 μg/mL
Description: U937 cells, a human monocytic cell line, are differentiated into macrophage-type cells by incubation with PMA; (100 ng/mL) for between 48 to 72 hr. The cells are then incubated with either final concentrations of test compound or vehicle for 18 hr. The induction of β-catenin by the test compounds is stopped by replacing the media with 4% formaldehyde solution. Endogenous peroxide activity is neutralised by incubating with quenching buffer (100 μL, 0.1% sodium azide, 1% H2O2 in PBS with 0.05% Tween-20) for 20 min. The cells are washed with washing buffer (200 μL; PBS containing 0.05% Tween-20) and incubated with blocking solution (200 μL; 5% milk in PBS) for 1 hr, re-washed with washing buffer (200 μL) and then incubated overnight with anti-β-catenin antibody solution (50 μL) in 1% BSA/PBS (BD, Oxford, UK).
After washing with washing buffer (3×200 μL; PBS containing 0.05% Tween-20), cells are incubated with an HRP-conjugated secondary antibody solution (100 μL) in 1% BSA/PBS (Dako, Cambridge, UK) and the resultant signal is determined colourimetrically (OD: 450 nm with a reference wavelength of 655 nm) using TMB substrate (50 μL; R&D Systems, Abingdon, UK). This reaction is stopped by addition of 1N H2SO4 solution (50 μL). Cells are then washed with washing buffer and 2% crystal violet solution (50 μL) is applied for 30 min. After washing with washing buffer (3×200 μL), 1% SDS (100 μL) is added to each well and the plates are shaken lightly for 1 hr prior to measuring the absorbance at 595 nm (Varioskan® Flash, Thermo-Fisher Scientific).
The measured OD450-655 readings are corrected for cell number by dividing the OD450-655 by the OD595 readings.

GSK 3α = GSK 3α (Homo sapiens (Human), UniProt P49840); assay: GSK 3α enzyme inhibition (FRET, Z-LYTE, Method 2); assay type: biochemical; details: read-out: IC50 Values for Enzyme Inhibition, GSK3α
Chain of GSK 3α (P49840 whole entry): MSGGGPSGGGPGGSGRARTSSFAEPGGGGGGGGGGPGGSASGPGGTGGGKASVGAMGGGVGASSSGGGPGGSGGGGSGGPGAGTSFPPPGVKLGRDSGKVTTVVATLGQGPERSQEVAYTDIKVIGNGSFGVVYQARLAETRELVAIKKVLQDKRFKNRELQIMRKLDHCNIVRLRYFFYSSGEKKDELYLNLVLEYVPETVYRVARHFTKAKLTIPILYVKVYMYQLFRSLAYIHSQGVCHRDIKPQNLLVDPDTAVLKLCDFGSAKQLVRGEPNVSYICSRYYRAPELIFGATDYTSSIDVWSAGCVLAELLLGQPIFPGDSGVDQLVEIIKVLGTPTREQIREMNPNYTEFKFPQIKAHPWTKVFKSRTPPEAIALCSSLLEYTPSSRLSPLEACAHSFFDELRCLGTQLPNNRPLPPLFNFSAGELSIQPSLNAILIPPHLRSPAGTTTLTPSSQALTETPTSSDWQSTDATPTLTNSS
Summary of the method: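 Phosphorylation of a dual-labelled synthetic peptide by human GSK3α is read as a coumarin/fluorescein ratio after protease development. Compound stocks run 4 to 0.004 μg/mL, and ATP stock is 40 μM.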

Syk = Syk (Homo sapiens (Human), UniProt P43405); assay: Syk enzyme inhibition (FRET, Z-LYTE); assay type: biochemical
Description: (§2) The enzyme inhibitory activities of compounds disclosed herein are determined by FRET using synthetic peptides labelled with both donor and acceptor fluorophores (Z-LYTE, Invitrogen Ltd., Paisley, UK).
(§3) The inhibitory activities of compounds of the invention against c-Src and Syk enzymes (Invitrogen), are evaluated in a similar fashion to that described hereinabove. The relevant enzyme (3000 ng/mL or 2000 ng/mL respectively, 2.5 μL) is incubated with the test compound (either 4 μg/mL, 0.4 μg/mL, 0.04 μg/mL, or 0.004 μg/mL, 2.5 μL each) for 2 hr at RT. The FRET peptides (8 μM, 2.5 μL), and appropriate ATP solutions (2.5 μL, 800 μM for c-Src, and 60 μM ATP for Syk) are then added to the enzymes/compound mixtures and incubated for 1 hr. Development reagent (protease, 5 μL) is added for 1 hr prior to detection in a fluorescence microplate reader (Varioskan® Flash, ThermoFisher Scientific).
(§4) In all cases, the site-specific protease cleaves non-phosphorylated peptide only and eliminates the FRET signal. Phosphorylation levels of each reaction are calculated using the ratio of coumarin emission (donor) over fluorescein emission (acceptor), for which high ratios indicate high phosphorylation and low ratios indicate low phosphorylation levels. The percentage inhibition of each reaction is calculated relative to non-inhibited control and the 50% inhibitory concentration (IC50 value) is then calculated from the concentration-response curve.

[4] = target: p38 MAPKα isoform (MAPK14) (Homo sapiens (Human), UniProt Q16539); assay: p38 MAPKα enzyme inhibition (FRET, Z-LYTE, Method 2); assay type: biochemical
Chain of p38 MAPKα isoform (MAPK14) (Q16539 whole entry, canonical isoform): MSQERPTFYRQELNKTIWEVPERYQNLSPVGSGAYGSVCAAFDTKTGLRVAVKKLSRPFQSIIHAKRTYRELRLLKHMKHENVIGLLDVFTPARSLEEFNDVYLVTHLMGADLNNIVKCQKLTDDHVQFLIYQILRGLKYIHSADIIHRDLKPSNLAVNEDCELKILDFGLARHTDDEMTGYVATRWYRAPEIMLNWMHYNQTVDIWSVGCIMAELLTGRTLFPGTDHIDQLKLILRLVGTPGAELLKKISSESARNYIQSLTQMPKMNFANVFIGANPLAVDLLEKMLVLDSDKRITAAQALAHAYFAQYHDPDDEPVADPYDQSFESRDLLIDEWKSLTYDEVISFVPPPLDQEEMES
Description: as §2
The following two assay variants can be used for determination of p38 MAPKα inhibition.
The inhibitory activities of test compounds against the p38 MAPKα isoform (MAPK14: Invitrogen), are evaluated indirectly by determining the level of activation/phosphorylation of the down-stream molecule, MAPKAP-K2. The p38 MAPKα protein (80 ng/mL, 2.5 μL) is mixed with the test compound (2.5 μL of either 4 μg/mL, 0.4 μg/mL, 0.04 μg/mL or 0.004 μg/mL) for 2 hr at RT. […] The mixture is incubated for 1 hr at RT. Development reagent (protease, 5 μL) is added for 1 hr prior to detection in a fluorescence microplate reader (Varioskan® Flash, ThermoFisher Scientific).
This method follows the same steps as Method 1 above, but utilises a higher concentration of the p38 MAPKα protein (2.5 μL of 200 ng/mL protein instead of 2.5 μL of 80 ng/mL protein) for mixing with the test compound.
as §4

c-Src = c-Src (Homo sapiens (Human), UniProt P12931); assay: c-Src enzyme inhibition (FRET, Z-LYTE); assay type: biochemical
Chain of c-Src (P12931 whole entry, looked up): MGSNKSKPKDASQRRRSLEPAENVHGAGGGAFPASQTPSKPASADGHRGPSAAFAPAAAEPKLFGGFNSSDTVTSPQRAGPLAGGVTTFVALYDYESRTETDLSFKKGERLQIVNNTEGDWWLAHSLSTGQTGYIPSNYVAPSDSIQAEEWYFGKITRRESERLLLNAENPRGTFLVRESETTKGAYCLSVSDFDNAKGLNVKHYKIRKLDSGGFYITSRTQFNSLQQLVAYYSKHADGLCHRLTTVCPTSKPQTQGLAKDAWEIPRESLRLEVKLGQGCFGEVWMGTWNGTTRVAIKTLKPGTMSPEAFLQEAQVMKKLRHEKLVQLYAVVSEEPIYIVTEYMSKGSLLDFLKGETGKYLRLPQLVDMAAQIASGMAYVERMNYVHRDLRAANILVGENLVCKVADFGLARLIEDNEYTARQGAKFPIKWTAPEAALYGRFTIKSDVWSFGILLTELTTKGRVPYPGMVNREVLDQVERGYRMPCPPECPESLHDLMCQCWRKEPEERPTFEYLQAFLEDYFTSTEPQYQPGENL
Description: as §2, §3, §4

PBMCs [5] = assay: Cell mitosis assay in PBMCs (assay g); assay type: cell-based; details: Homo sapiens, PBMC, test compound 5 μg/mL
Description: Peripheral blood mononucleocytes (PBMCs) from healthy subjects are separated from whole blood (Quintiles, London, UK) using a density gradient (Histopaque®-1077, Sigma-Aldrich, Poole, UK). The PBMCs (3 million cells per sample) are subsequently treated with 2% PHA (phytohaemagglutinin, Sigma-Aldrich, Poole, UK) for 48 hr, followed by a 20 hr exposure to varying concentrations of test compounds. At 2 hr before collection, PBMCs are treated with demecolcine (0.1 μg/mL; Invitrogen, Paisley, UK) to arrest cells in metaphase. To observe mitotic cells, PBMCs are permeabilised and fixed by adding Intraprep (50 μL; Beckman Coulter, France), and stained with anti-phospho-histone 3 (0.26 ng/L; #9701; Cell Signalling, Danvers, Mass.) and propidium iodide (1 mg/mL; Sigma-Aldrich, Poole, UK) as previously described (Muehlbauer P. A. and Schuler M. J., Mutation Research, 2003, 537:117-130). Fluorescence is observed using an ATTUNE flow cytometer (Invitrogen, Paisley, UK), gating for lymphocytes. The percentage inhibition of mitosis is calculated for each treatment relative to vehicle (0.5% DMSO) treatment.

SMILES	IC50 (PBMCs [1]) [µM]	IC50 (PBMCs [2]) [µM]	IC50 (PBMCs [3]) [µM]	% β-catenin induction (d-U937 cells; test compound 1 μg/mL) [%]	% β-catenin induction (d-U937 cells; test compound 5 μg/mL) [%]	% β-catenin induction (d-U937 cells; test compound 10 μg/mL) [%]	IC50 (GSK 3α) [µM]	IC50 (Syk) [µM]	IC50 [4] [µM]	IC50 (c-Src) [µM]	inhibition at 5 µg/mL (PBMCs [5]) [%]
COc1c(NC(=O)Nc2ccc(Oc3ccnc(Nc4ccccc4)c3)c3ccccc23)cc(C(C)(C)C)cc1OCP(C)(C)=O [15(e), 1-(5-(tert-butyl)-3-((dimethylphosphoryl)methoxy)-2-methoxyphenyl)-3-(4-((2-(phenylamino)pyridin-4-yl)oxy)naphthalen-1-yl)urea]	0.0604	0.0047	0.0256	2.0	20.5	32.5	2.89	0.551	0.36	0.12	–
COc1c(NC(=O)Nc2ccc(Oc3ccnc(Nc4cnccn4)n3)c3ccccc23)cc(C(C)(C)C)cc1P(C)(C)=O [15(q), 1-(5-(tert-butyl)-3-(dimethylphosphoryl)-2-methoxyphenyl)-3-(4-((2-(pyrazin-2-ylamino)pyrimidin-4-yl)oxy)naphthalen-1-yl)urea]	1.64	0.0062	–	5.0	9.5	2.5	3.48	> 1.64	–	0.211	12.9
COc1c(CC(N)=O)cc(C(C)(C)C)cc1NC(=O)Nc1ccc(Oc2ccnc(Nc3cccc(OC(F)F)c3)c2)c2ccccc12 [38(s), 2-(5-(tert-Butyl)-3-(3-(4-((2-((3-(difluoromethoxy)phenyl)amino)pyridin-4-yl)oxy)naphthalen-1-yl)ureido)-2-methoxyphenyl)acetamide]	0.0267	0.0053	0.19	–	–	–	> 15.3	> 1.53	–	0.363	–
COc1cc(Nc2cc(Oc3ccc(NC(=O)Nc4cc(C(C)(C)C)cc(CP(C)(C)=O)c4OC)c4ccccc34)ccn2)cc(C(=O)NCCN2CCOCC2)c1 [38(v), 3-((4-((4-(3-(5-(tert-Butyl)-3-((dimethylphosphoryl)methyl)-2-methoxyphenyl)ureido)-naphthalen-1-yl)oxy)pyridin-2-yl)amino)-5-methoxy-N-(2-morpholinoethyl)benzamide]	0.0081	0.0017	0.0845	–	–	–	1.15	–	–	–	–
COCCOCCOCCOc1cc(Nc2nccc(Oc3ccc(NC(=O)Nc4cc(C(C)(C)C)cc(P(C)(C)=O)c4OC)c4ccccc34)n2)cc(OC)c1 [Example 1, 1-(5-(tert-Butyl)-3-(dimethylphosphoryl)-2-methoxyphenyl)-3-(4-((2-((3-methoxy-5-(2-(2-(2-methoxyethoxy)ethoxy)ethoxy)phenyl)amino)pyrimidin-4-yl)oxy)naphthalen-1-yl)urea]	0.0038	0.0011	0.0612	–	–	–	0.33	0.03	0.034	0.009	–
COc1cncc(Nc2cc(Oc3ccc(NC(=O)Nc4cc(C(C)(C)C)cc(P(C)(C)=O)c4OC)c4ccccc34)ccn2)c1 [Example 34, 1-(5-(tert-Butyl)-3-(dimethylphosphoryl)-2-methoxyphenyl)-3-(4-((2-((5-methoxypyridin-3-yl)amino)pyridin-4-yl)oxy)naphthalen-1-yl)urea]	–	0.0012	–	2.0	28.5	23.0	1.58	0.228	0.056	0.043	81.1
COc1c(NC(=O)Nc2ccc(Oc3ccnc(Nc4ccn(C)n4)c3)c3ccccc23)cc(C(C)(C)C)cc1P(C)(C)=O [Example 36, 1-(5-(tert-Butyl)-3-(dimethylphosphoryl)-2-methoxyphenyl)-3-(4-((2-((1-methyl-1H-pyrazol-3-yl)amino)pyridin-4-yl)oxy)naphthalen-1-yl)urea]	–	0.0011	–	17.5	84.5	27.5	1.07	0.054	0.031	0.027	86.6
COc1cc(Nc2cc(Oc3ccc(NC(=O)Nc4cc(C(C)(C)C)cc(S(C)(=O)=O)c4OC)c4ccccc34)ccn2)ccc1C(=O)O [Example 80, 4-((4-((4-(3-(5-(tert-Butyl)-2-methoxy-3-(methylsulfonyl)phenyl)ureido)naphthalen-1-yl)oxy)pyridin-2-yl)amino)-2-methoxybenzoic acid]	0.0066	0.0045	0.415	–	–	–	–	–	–	–	–

Reference: patent US9890185B2, “Urea derivatives useful as kinase inhibitors” (Respivert Limited, priority 2013, dated 2018)
